{"source": "patent US20130253020A1", "about": "“Treatment of Degenerative Disc Diseases” (priority 2012, published 2013)", "key": {"[1]": {"test_system": "advanced glycation end-products (AGEs) in nucleus pulposus (NP) tissues", "assay": "AGEs in NP disc tissue: autofluorescence of acid hydrolysates divided by collagen content, after thiazolium salt incubation", "set-up": "species or system human", "conditions": "4 days", "experimental": "Eleven lumbar spines (T12/L1-L5/S1) were collected fresh frozen cadavers consisting of 5 males and 6 females with a mean age of 82.5 years ±10.2. The cross-sections of the lumbar disc were visually categorized into Thompson grades 1 to 5 and corroborated with fluoroscopic imaging. The grade 1 (“Control”) and grade 5 (“Degenerate”) discs were used (total 27 discs). The discs were separated into annulus fibrosus (AF) and nucleus pulposus (NP) tissues. The Control discs were tested mechanically and then divided to undergo 0, 2, 4, 8, and 10 days of ribosylation in 0.6M ribose at 37° C. The treated Control discs, along with the degenerated discs were then tested mechanically using a dynamic microindentation device in 0.15M PBS at 20° C. using the Biopent 1000 reference point indentation system (Active Life Scientific, CA). A 1.47 mm diameter cylindrical probe cyclically indented the tissue to a depth of 300 μm at 1 Hz to generate a force displacement curve. Three distinct sites per AF/NP were measured and averaged between the sites. The resulting force-deformation curves, accounting for the probe geometry, were used to compute elastic modulus and tan δ.\nFollowing mechanical measurements, the O-day and 4-day treated Control NP tissues were incubated in 0.15M of a thiazolium salt known to cleave AGEs products (Oturai P S, Christensen M, Rolin B, Pedersen K E, Mortensen S B, Boel E. Effects of advanced glycation end-product inhibition and cross-link breakage in diabetic rats. Metab Clin Exp 2000:49:996-1000.) for 4 days. […] Following the second incubation, all tissues were mechanically assessed again, and then subjected to acid hydrolysis by 6N hydrochloric acid (16 hours, 110C). The collagen crosslinking by AGEs, a sugar-derived posttranslational modification of amino acids, was quantified by measuring the autofluorescence of the acid hydrolysates at […] and divided by collagen content (Monnier V M, Kohn R R, Cerami A. Accelerated age-related browning of human collagen in diabetes mellitus. Proc Natl Acad Sci USA 1984; 81:583-587). […]"}, "[2]": {"test_system": "nucleus pulposus (NP) tissues", "assay": "Dynamic microindentation of NP tissue (indentation modulus, tan δ) after thiazolium salt incubation", "set-up": "species or system human", "conditions": "ribosylated or degenerated, thiazolium salt solution 4 days, FIG. 2", "experimental": "Eleven lumbar spines (T12/L1-L5/S1) were collected fresh frozen cadavers consisting of 5 males and 6 females with a mean age of 82.5 years ±10.2. The cross-sections of the lumbar disc were visually categorized into Thompson grades 1 to 5 and corroborated with fluoroscopic imaging. The grade 1 (“Control”) and grade 5 (“Degenerate”) discs were used (total 27 discs). The discs were separated into annulus fibrosus (AF) and nucleus pulposus (NP) tissues. The Control discs were tested mechanically and then divided to undergo 0, 2, 4, 8, and 10 days of ribosylation in 0.6M ribose at 37° C. […] Three distinct sites per AF/NP were measured and averaged between the sites. […]\nFollowing mechanical measurements, the O-day and 4-day treated Control NP tissues were incubated in 0.15M of a thiazolium salt known to cleave AGEs products (Oturai P S, Christensen M, Rolin B, Pedersen K E, Mortensen S B, Boel E. Effects of advanced glycation end-product inhibition and cross-link breakage in diabetic rats. Metab Clin Exp 2000:49:996-1000.) for 4 days. […] Following the second incubation, all tissues were mechanically assessed again, and then subjected to acid hydrolysis by 6N hydrochloric acid (16 hours, 110C). […]"}, "primary spine disc cells": {"test_system": "primary spine disc cells", "assay": "mRNA expression of inflammatory cytokines and r-AGEs in primary spine disc cells exposed to AGEs", "type": "cell-based, human and bovine", "conditions": "FIG. 3", "text": "Primary spine disc cells were isolated from both human and bovine spine discs. The tissues were digested using a cocktail containing collagenase P, trypsin, and other enzymes to release the primary cells embedded within the tissues (Neidlinger-Wilke C, Liedert A, Wuertz K, Buser Z, Rinkler C, Käfer W, et al. Mechanical stimulation alters pleiotrophin and aggrecan expression by human intervertebral disc cells and influences their capacity to stimulate endothelial migration. Spine 2009; 34:663-669). These cells were then conditioned and allowed to expand for 3 passages. After conditioning in normal cell culture media, the cells were exposed to several conditions: Control, bovine serum albumin, and AGEs. The treatments were dissolved directly in the cell culture media and then the cells were subjected to these conditions for 24 hours. Messenger ribose nucleic acids (mRNA) were then extracted from these cells and amplified into respective complimentary deoxyribose nucleic acids (cDNA). The cDNA sequences were tested for the normalized expression (normalized to the housekeeping gene, GAP-DH) of Interleukin (IL)-4, IL-6 (both of which initiate the inflammatory pain response), and the Receptor-for Advanced Glycation End-products (r-AGEs). The normalized expressions compared to the controls were computed by the delta-delta CT method."}}, "data": [{"smiles": "O=C(C[n+]1ccsc1)c1ccccc1.[Br-]", "note": "[PTB, N-phenacyl thiazolium bromide]", "values": [{"measurement": "AGEs in NP disc tissue", "setting": "[1]; Grade 1 (Control) NP tissue, 0.15M PTB solution", "result": "significant reductions"}, {"measurement": "AGEs in NP disc tissue", "setting": "[1]; Grade 5 (Degenerate) NP tissue, 0.15M PTB solution", "result": "significant reductions"}, {"measurement": "AGEs in NP disc tissue", "setting": "[1]; Grade I+Ribosylation NP tissue (4-day ribosylation), 0.15M thiazolium salt", "result": "significant reductions"}, {"measurement": "mechanical properties of NP tissue (indentation modulus, tan δ)", "setting": "[2]", "result": "rescuing effect"}, {"measurement": "cellular inflammatory response, marked by the cytokines IL-4 and IL-6", "setting": "primary spine disc cells; concurrent administration with AGEs in cell culture media, 24 hours", "result": "suppresses this response"}, {"measurement": "Interleukin-1 expression", "setting": "primary spine disc cells; primary spinal disc cells", "result": "decrease"}, {"measurement": "Interleukin-6 expression", "setting": "primary spine disc cells; primary spinal disc cells", "result": "decrease"}, {"measurement": "expression of the Receptor-for-Advanced Glycation End-Products", "setting": "primary spine disc cells; primary spinal disc cells", "result": "reduction"}]}]}
